Results on 52 molecules are retold here after PubChem BioAssay AID1996.

Converted amounts (≈) assume the structure as drawn.

The conditions of this data set: buffer; pH 7.4; 200.0 µM.
For the molecule `O=C(NC1CCCCC1)c1ccc(-c2ccccc2F)o1`, the kinetic solubility was determined as 5 µg/mL (≈ 17.4 µM).

`CC(C)(C)c1ccc(C(=O)NCC(=O)N2CCCCCC2)cc1`: the solubility (kinetic) is more than 47.5 µg/mL.

In the case of `COC(=O)c1ccc2c(=O)n(-c3ccc(OC)cc3)c(=S)[nH]c2c1`, the solubility (kinetic) came out at 1.5 µg/mL (≈ 4.38 µM).

Molecule `CC1NC(=O)NC1CCCCCC(=O)Nc1ccc(F)c(Cl)c1` (configuration not stated) came in with a kinetic solubility of more than 51.3 µg/mL.

Molecule `Cc1ccc2[nH]c3c(c2c1)CCCC3NCCO.Cl` (configuration not stated) showed a solubility (kinetic) of more than 42.1 µg/mL.

Take `CN(C(=O)CSc1nc2scc(-c3ccccc3)c2c(=O)[nH]1)c1ccccc1`: the solubility (kinetic) came to 11.2 µg/mL (≈ 27.5 µM).

`O=C(O)c1cccc(Cl)n1` came in with a kinetic solubility of more than 23.6 µg/mL.

Regarding `COCCn1c(SCC(=O)NC2CCCC2)nnc1-c1ccco1`, the kinetic solubility was more than 52.6 µg/mL.

Take `COc1ccc2ccccc2c1CN1CCSCC1`: the kinetic solubility worked out at 21.5 µg/mL (≈ 78.6 µM).

For `O=C(COc1ccc(-c2ccccc2)cc1)Nc1cccnc1`, the kinetic solubility is 4.2 µg/mL (≈ 13.8 µM). This solubility kinetic is about 5.1-fold lower than that of the molecule before.

Take `CC(=O)Nc1ccc(S(=O)(=O)NCCC(=O)Nc2ncccc2C)cc1`: the solubility (kinetic) is more than 56.5 µg/mL.

For the molecule `COc1cccc(NC(=O)c2ccc3nsnc3c2)c1`, the kinetic solubility is 24.5 µg/mL (≈ 85.9 µM).

`COc1cc(CC(=O)NCC2CCCCC2)cc(OC)c1OC`: the solubility (kinetic) was determined as 43.9 µg/mL (≈ 137 µM).

Turning to `CC(NC(=O)/C(C#N)=C/c1cccs1)c1ccccc1` (configuration not stated), the solubility (kinetic) came to 3.6 µg/mL (≈ 12.7 µM).

The molecule `Cc1ccc2oc(C(=O)N3CCN(C)C[C@@H]3C(C)C)c(C)c2c1` came in with a kinetic solubility of 34.3 µg/mL (≈ 109 µM).

`O=C(c1ccc(Cl)c(Cl)c1)N1CCN(c2ccccn2)CC1` gave a solubility (kinetic) of 40.4 µg/mL (≈ 120 µM).

The molecule `CC1CCCC(NC(=O)COc2ncnc3ccccc23)C1C` (configuration not stated) displayed a solubility (kinetic) of 44.6 µg/mL (≈ 142 µM).

With `O=C(Nc1cccc(NC(=O)C2C3CC4OC(=O)C2C4C3)c1)c1ccccc1` (configuration not stated), the solubility (kinetic) turned out to be 46.7 µg/mL (≈ 124 µM).

Regarding `COc1cccc(C(=O)OCC(=O)NC(=O)NC2CCCC2)c1O`, the solubility (kinetic) turned out to be 38.5 µg/mL (≈ 114 µM).

With `Cc1cccc(NC(=O)C(C)Sc2nc3nc(C)cc(C)n3n2)c1` (configuration not stated), the kinetic solubility is more than 51.2 µg/mL.

With `Cc1cc(NC(=O)c2cc([N+](=O)[O-])ccc2Cl)no1`, the solubility (kinetic) was more than 42.2 µg/mL.

`Cn1ncc([N+](=O)[O-])c1C(=O)N1CCCCCC1` returned a kinetic solubility of more than 37.8 µg/mL.

`CC(C)[C@H](NC(=O)c1ccc(Cl)cc1)C(=O)OCC(=O)N1CCN(c2ccccc2)CC1` returned a solubility (kinetic) of 52.5 µg/mL (≈ 115 µM).

`Cc1cccc(N/C=C/C(=O)c2ccc(Cl)cc2)c1` had a solubility (kinetic) of less than 0.6 µg/mL.

`Cc1ccc2nc(-c3ccc4c(c3)OCCO4)cn2c1`: the solubility (kinetic) turned out to be 35.1 µg/mL (≈ 132 µM).

`FCCCOc1ccc(-c2nccc(-c3ccccn3)n2)cc1` had a solubility (kinetic) of 2.8 µg/mL (≈ 9.05 µM).

With `CCC(C)N1C(=O)CN(C2CCCCCC2)C(=O)C1c1ccccc1F` (configuration not stated), the solubility (kinetic) was found to be 19.6 µg/mL (≈ 54.4 µM). This solubility kinetic lies about 7-fold higher than the previous one.

In turn, `CCc1cc2c(=O)c(-c3nc(C)cs3)coc2cc1O` yielded a kinetic solubility of 1.2 µg/mL (≈ 4.18 µM).

`OC(CCNCCc1c[nH]c2ccccc12)C(F)(F)F` (configuration not stated) yielded a kinetic solubility of 35.8 µg/mL (≈ 125 µM).

As for `O=C1CSC(c2ccc(F)cc2)N1c1c(F)cccc1F` (configuration not stated), the kinetic solubility came out at 31.2 µg/mL (≈ 101 µM).

Regarding `CS(=O)(=O)N1CCC(CO)(Cc2ccccc2C(F)(F)F)CC1`, the kinetic solubility is 48.7 µg/mL (≈ 139 µM).

`CNC(=O)Cn1c(C)cc(=O)c2cccc(C)c21` yielded a solubility (kinetic) of more than 36.6 µg/mL.

For `O=C1NC(=Nc2ccccc2)S/C1=C\c1cccnc1`, the kinetic solubility amounted to 2 µg/mL (≈ 7.11 µM).

For `O=C(Nc1cccc(F)c1)C1CCCN(c2cnccn2)C1` (configuration not stated), the kinetic solubility is more than 45.1 µg/mL.

Molecule `O=C(/C=C/c1ccccc1[N+](=O)[O-])c1ccc(F)cc1` gave a kinetic solubility of 4.5 µg/mL (≈ 16.6 µM).

`CCCNC(=O)c1ccc(COc2ccc(C)cc2)o1`: the kinetic solubility was more than 41 µg/mL.

For the molecule `NC(N)=Nc1nc2cc([N+](=O)[O-])ccc2o1`, the solubility (kinetic) was 6.4 µg/mL (≈ 28.9 µM).

In turn, `COc1ccc(CCNC(=O)c2ccc(OC)c(OC)c2)cc1OC` had a kinetic solubility of 39.6 µg/mL (≈ 115 µM).

`Cc1ccc(O)c(NC(=O)Cc2ccc3ccccc3c2)c1` registered a solubility (kinetic) of 6.5 µg/mL (≈ 22.3 µM).

As to `COc1cccc(NC(=S)N(CCC(C)C)C(C)c2ccncc2)c1` (configuration not stated), the kinetic solubility was determined as 44.4 µg/mL (≈ 124 µM).

The molecule `Cc1ccc(S(=O)(=O)N2CCOCC2)cc1NC(=O)COc1ccccc1Cc1ccccc1` had a solubility (kinetic) of 4.4 µg/mL (≈ 9.16 µM).

For the molecule `COc1ccc(C2Nc3ccccc3C(=O)N2Cc2ccccc2)cc1OC` (configuration not stated), the kinetic solubility was less than 0.4 µg/mL.

For the molecule `Cc1nc(SCC(=O)NCCN2C(=O)CSC2=O)nc(C)c1C`, the solubility (kinetic) is more than 53.2 µg/mL.

In turn, `CCOC(=O)CNC(=S)SC` registered a kinetic solubility of 21.8 µg/mL (≈ 113 µM).

Molecule `O=C(N[C@@H](Cc1ccccc1)C(=O)N1CCN(S(=O)(=O)c2ccccc2F)CC1)c1ccco1` returned a solubility (kinetic) of 23.7 µg/mL (≈ 48.8 µM).

For `O=C(COC(=O)c1cccc(C(F)(F)F)c1)NC(=O)NC1CCCC1`, the solubility (kinetic) is 5.2 µg/mL (≈ 14.5 µM).

In the case of `O=S(=O)(Nc1ncccn1)c1ccc(F)cc1`, the kinetic solubility is more than 38 µg/mL.

`O=C(COC(=O)c1ccc[nH]c1=O)NC1CCCCC1` gave a kinetic solubility of 37 µg/mL (≈ 133 µM).

Consider `COc1ccc(C(=O)Nc2ccc(C(=O)N3CCCCC3C)cc2)c(OC)c1OC` (configuration not stated), for which the kinetic solubility was more than 61.9 µg/mL.

As for `CC(=O)c1csc(COc2ccc(Cl)cc2)n1`, the solubility (kinetic) was 3 µg/mL (≈ 11.2 µM).

The molecule `O=C1COc2ccc(C(=O)CCl)cc2N1` came in with a solubility (kinetic) of more than 33.8 µg/mL.

With `CCc1ccccc1NC(=S)N1CCCCCC1`, the kinetic solubility was more than 39.4 µg/mL.

As usually defined, the solubility (kinetic) is the concentration staying in solution when a stock, usually in DMSO, is diluted into the medium.
